Consider 39 compounds from patent US20240150377A1, “MODULATORS OF CYSTIC FIBROSIS TRANSMEMBRANE CONDUCTANCE REGULATOR” (VERTEX PHARMACEUTICALS INCORPORATED, priority 2020, published 2024).

Where two headings read alike, the source gives them in different places.

The assay addresses T1, CFTR (Homo sapiens, UniProt P13569, DEL508-508).
T1 construct: endogenous in cells; host or cells: primary human bronchial epithelial cells from CF subjects (F508del/MF-HBE), differentiated at air-liquid interface
Description: HBE assay: Ussing chamber assay of CFTR-mediated short-circuit currents. The assay is classed as cell-based. The note with it: for EC50: read-out: HBE EC50; for activation at 10 µM: read-out: HBE Activity at 10 μM (%). The essentials:
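CFTR-mediated Isc (μA/cm²) equals the peak response to apical 20 μM forskolin minus the residual after a 20 μM each BPO/GlyH-101/CFTR inhibitor 172 cocktail, recorded in Ussing chambers at Vhold 0 mV, 37 °C, pH 7.4, with 30 μM apical amiloride. Cells were F508del/MF HBE cultures preincubated 18-24 h with corrector (concentration range or 10 μM) plus 1 μM ivacaftor in 20% human serum.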

Where [1] appears, read: Table 13, read-out: HBE Max Activity (%).
[2] abbreviates: Table 11, read-out: HBE Max Activity (%).
Where [3] appears, read: Table 10, read-out: HBE Max activity (%).
[4] abbreviates: Table 12, read-out: HBE Max Activity (%).
Where [5] appears, read: HBE assay, read-out: HBE Max activity (%).

T1 sequence (P13569 with tags, fused parts or gaps DEL508-508): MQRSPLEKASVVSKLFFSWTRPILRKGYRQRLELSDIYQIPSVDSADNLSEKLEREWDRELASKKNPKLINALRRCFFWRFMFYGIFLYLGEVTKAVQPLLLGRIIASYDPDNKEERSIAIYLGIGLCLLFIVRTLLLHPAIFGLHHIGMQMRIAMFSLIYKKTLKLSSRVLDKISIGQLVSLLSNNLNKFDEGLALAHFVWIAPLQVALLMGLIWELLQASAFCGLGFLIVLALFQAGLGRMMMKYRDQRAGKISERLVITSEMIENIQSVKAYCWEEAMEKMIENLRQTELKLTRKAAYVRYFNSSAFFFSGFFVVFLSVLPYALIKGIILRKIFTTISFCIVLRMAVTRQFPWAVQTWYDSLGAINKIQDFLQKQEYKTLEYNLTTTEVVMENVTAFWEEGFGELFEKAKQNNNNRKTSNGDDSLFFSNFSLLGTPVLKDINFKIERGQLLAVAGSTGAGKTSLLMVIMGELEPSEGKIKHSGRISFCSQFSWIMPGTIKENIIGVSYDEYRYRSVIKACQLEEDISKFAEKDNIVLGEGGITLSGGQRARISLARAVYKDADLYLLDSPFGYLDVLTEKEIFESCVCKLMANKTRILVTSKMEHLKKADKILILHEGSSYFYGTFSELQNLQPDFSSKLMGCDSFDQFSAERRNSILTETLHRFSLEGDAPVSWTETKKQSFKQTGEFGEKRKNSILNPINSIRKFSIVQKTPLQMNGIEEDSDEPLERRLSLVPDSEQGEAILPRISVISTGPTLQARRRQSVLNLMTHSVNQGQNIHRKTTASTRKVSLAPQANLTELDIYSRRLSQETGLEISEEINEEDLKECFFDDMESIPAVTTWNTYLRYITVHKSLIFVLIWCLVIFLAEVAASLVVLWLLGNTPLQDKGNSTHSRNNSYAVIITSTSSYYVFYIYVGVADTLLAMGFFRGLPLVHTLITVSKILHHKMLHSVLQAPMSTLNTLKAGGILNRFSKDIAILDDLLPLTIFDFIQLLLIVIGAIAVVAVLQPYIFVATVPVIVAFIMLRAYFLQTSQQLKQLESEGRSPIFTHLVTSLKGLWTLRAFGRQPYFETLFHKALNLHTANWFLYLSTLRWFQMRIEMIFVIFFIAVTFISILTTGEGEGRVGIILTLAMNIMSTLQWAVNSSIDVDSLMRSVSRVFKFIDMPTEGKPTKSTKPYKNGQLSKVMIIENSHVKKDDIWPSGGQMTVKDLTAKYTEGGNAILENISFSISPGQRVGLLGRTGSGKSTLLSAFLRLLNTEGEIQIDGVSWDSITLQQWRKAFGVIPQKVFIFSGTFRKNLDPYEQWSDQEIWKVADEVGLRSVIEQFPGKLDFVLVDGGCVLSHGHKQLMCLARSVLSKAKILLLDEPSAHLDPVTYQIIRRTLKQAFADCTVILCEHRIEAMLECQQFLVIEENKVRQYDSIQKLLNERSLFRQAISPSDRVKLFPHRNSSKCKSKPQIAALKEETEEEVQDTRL

Usually EC50 stands for the concentration at which the effect is half-maximal. For the compound `Cc1cccc(C)c1-c1cc2nc(n1)NS(=O)(=O)c1cccc(c1)C(=O)N(Cc1ccc(NC(C)C)cn1)[C@H](CC(C)(C)C)CO2` [Compound 996], under “Table 13”, the half-maximal effective concentration (EC50) is less than 1000 nM. Besides, the Emax under setting [1] was greater than 60%.

Take `Cc1cccc(C)c1-c1cc2nc(n1)NS(=O)(=O)c1cccc(c1)C(=O)N(Cc1ncccc1F)[C@H](CC(C)(C)C)CO2` [Compound 1068]: the EC50 (Table 13) is less than 1000 nM. Moreover, the Emax under setting [1] was greater than 60%.

As for `Cc1cccc(C)c1-c1cc2nc(n1)NS(=O)(=O)c1cccc(c1)C(=O)N(Cc1ncc(C3CC3)cn1)[C@H](CC(C)(C)C)CO2` [Compound 642], the concentration giving a half-maximal response (EC50) (Table 11) lay within 1000 to 3000 nM. For the same compound, the Emax under setting [2] was greater than 60%.

`Cc1cccc(C)c1-c1cc2nc(n1)NS(=O)(=O)c1cccc(c1)C(=O)N(Cc1cccc(N3CCC[C@@]3(C)C(=O)O)n1)[C@H](CC(C)(C)C)CO2` [Compound 278]: the activation at 10 µM (Table 12, at 10 μM) is greater than 600%.

As to `Cc1cccc(C)c1-c1cc2nc(n1)NS(=O)(=O)c1cccc(c1)C(=O)N(CC(=O)N1C[C@H](C)CC1(C)C)[C@H](CC(C)(C)C)CO2` [Compound 204], for the setting “Table 13, at 10 μM”, the activation at 10 µM is greater than 600%.

`Cc1cccc(C)c1-c1cc2nc(n1)NS(=O)(=O)c1cccc(c1)C(=O)N(CC1(N(C)C)CC3(CCC3)C1)[C@H](CC(C)(C)C)CO2` [Compound 997]: under “Table 13, at 10 μM”, the activation at 10 µM was greater than 600%.

As for `Cc1cccc(C)c1-c1cc2nc(n1)NS(=O)(=O)c1cccc(c1)C(=O)N(Cc1ccc(N(C)C)cn1)[C@H](CC(C)(C)C)CO2` [Compound 503], the EC50 (Table 10) was less than 1000 nM. Under setting [3], the Emax was greater than 60%.

In the case of `Cc1cccc(C)c1-c1cc2nc(n1)NS(=O)(=O)c1cccc(c1)C(=O)N(Cc1nccc(N3CCC(C)(C)CC3)n1)[C@H](CC(C)(C)C)CO2` [Compound 620], under “Table 11”, the “HBE Max activity (%)” value was “+ (+ is <30%)”. Besides, under “Table 11, at 10 μM”, the activation at 10 µM was greater than 60%.

As for `Cc1cccc(C)c1-c1cc2nc(n1)NS(=O)(=O)c1cccc(c1)C(=O)N(Cc1ncc(N3CCC(OC(C)C)CC3)cn1)[C@H](CC(C)(C)C)CO2` [Compound 568], where the note is “Table 12”, the EC50 is less than 1000 nM. Moreover, the Emax under setting [4] is greater than 60%.

On to `COc1cc(OC(C)C)cnc1CN1C(=O)c2cccc(c2)S(=O)(=O)Nc2nc(cc(-c3c(C)cccc3C)n2)OC[C@H]1CC(C)(C)C` [Compound 1117], for which the EC50 (Table 13) was less than 1000 nM. The Emax under setting [1] is greater than 60%.

Turning to `Cc1cccc(C)c1-c1cc2nc(n1)NS(=O)(=O)c1cccc(c1)C(=O)N(Cc1cccc(OCC(C)(C)C)n1)[C@H](CC(C)(C)C)CO2` [Compound 469], the Emax under setting [3] is greater than 60%.

Turning to `CC(C)c1cccc(C(C)C)c1-c1cc2nc(n1)NS(=O)(=O)c1cccc(c1)C(=O)N(Cc1ccc(N3CCOCC3)cn1)[C@H](CC(C)(C)C)CO2` [Compound 831], under setting [3], the Emax is greater than 60%.

As to `Cc1cccc(C)c1-c1cc2nc(n1)NS(=O)(=O)c1cccc(c1)C(=O)N(Cc1coc(N3CCOCC3)n1)[C@H](CC(C)(C)C)CO2` [Compound 1358], the concentration giving a half-maximal response (EC50) (HBE assay) is less than 1000 nM. In addition, the Emax under setting [5] is greater than 60%.

As for `Cc1cccc(C)c1-c1cc2nc(n1)NS(=O)(=O)c1cccc(c1)C(=O)N(Cc1ccnc(N3CCC[C@H]3C(C)C)n1)[C@H](CC(C)(C)C)CO2` [Compound 1475], the concentration for a half-maximal effect (EC50) (HBE assay) is less than 1000 nM. Under setting [5], the Emax is greater than 60%.

Consider `COCC(C)Oc1cnc(CN2C(=O)c3cccc(c3)S(=O)(=O)Nc3nc(cc(-c4c(C)cccc4C)n3)OC[C@H]2CC(C)(C)C)nc1` (stereo partly shown) [Compound 1344], for which the EC50 (HBE assay) was less than 1000 nM. The Emax under setting [5] is greater than 60%.

With `Cc1cccc(C)c1-c1cc2nc(n1)NS(=O)(=O)c1cccc(c1)C(=O)N(Cc1cnc(N3CCOCC3)cn1)[C@H](CC(C)(C)C)CO2` [Compound 505], under “Table 10”, the EC50 is less than 1000 nM. Under setting [3], the Emax is greater than 60%.

On to `Cc1cccc(C)c1-c1cc2nc(n1)NS(=O)(=O)c1cccc(c1)C(=O)N(CC(=O)N1CCCCC1c1ccccc1F)[C@H](CC(C)(C)C)CO2` (stereo partly shown) [Compound 176], for which the activation at 10 µM (Table 13, at 10 μM) is greater than 600%.

As for `Cc1cccc(C)c1-c1cc2nc(n1)NS(=O)(=O)c1cccc(c1)C(=O)N(Cc1nccc(N3CCC(C)(C)CC3)n1)[C@H](CC(C)(C)C)CO2` [Compound 636], under “Table 11”, the “HBE Max activity (%)” value is “+++ (+++ is >60%)” and the EC50 is less than 1000 nM.

As for `Cc1cccc(C)c1-c1cc2nc(n1)NS(=O)(=O)c1cccc(c1)C(=O)N(CCc1cccc(N3CCOCC3)n1)[C@H](CC(C)(C)C)CO2` [Compound 110, (11R)-6-(2,6-Dimethylphenyl)-11-(2,2-dimethylpropyl)-12-[2-(6-morpholino-2-pyridyl)ethyl]-2,2-dioxo-9-oxa-2λ^6-thia-3,5,12,19-tetrazatricyclo[12.3.1.14,8]nonadeca-1(18),4(19),5,7,14,16-hexaen-13-one], the activation at 10 µM (Table 11, at 10 μM) was greater than 60%. Also, the EC50 (Table 11) is less than 1000 nM. Further, the Emax under setting [2] was greater than 60%.

Regarding `Cc1cccc(C)c1-c1cc2nc(n1)NS(=O)(=O)c1cccc(c1)C(=O)N(Cc1ncc(OC(F)F)cn1)[C@H](CC(C)(C)C)CO2` [Compound 1430], where the note is “HBE assay”, the 50% effective concentration (EC50) was less than 1000 nM. Moreover, the Emax under setting [5] was greater than 60%.

With `Cc1cccc(C)c1-c1cc2nc(n1)NS(=O)(=O)c1cccc(c1)C(=O)N(Cc1ncc(N3CC(C)(C)C3)cn1)[C@H](CCC(C)(C)C)CO2` [Compound 1525], the activation at 10 µM (HBE assay, 10 μM) is greater than 60%.

With `Cc1cccc(C)c1-c1cc2nc(n1)NS(=O)(=O)c1cccc(c1)C(=O)N(CC(=O)N(C)CC1CCCC1)[C@H](CC(C)(C)C)CO2` [Compound 229], the activation at 10 µM (Table 12, at 10 μM) was greater than 600%.

In the case of `Cc1cccc(C)c1-c1cc2nc(n1)NS(=O)(=O)c1cccc(c1)C(=O)N(Cc1ncc(OC3CCC3)cn1)[C@H](CCC(C)(C)C)CO2` [Compound 1486], the activation at 10 µM (HBE assay, 10 μM) was greater than 60%.

Take `Cc1cccc(C)c1-c1cc2nc(n1)NS(=O)(=O)c1cccc(c1)C(=O)N(Cc1ncc(OC3CCOCC3)cc1F)[C@H](CC(C)(C)C)CO2` [Compound 1368]: the EC50 (HBE assay) was less than 1000 nM. Also, the Emax under setting [5] is greater than 60%.

As for `Cc1cccc(C)c1-c1cc2nc(n1)NS(=O)(=O)c1cccc(c1)C(=O)N(Cc1ncc(N3CC[C@](C)(F)C3)cn1)[C@H](CC(C)(C)C)CO2` [Compound 1440], the EC50 (HBE assay) is less than 1000 nM. Further, the Emax under setting [5] is greater than 60%.

With `Cc1cccc(C)c1-c1cc2nc(n1)NS(=O)(=O)c1cccc(c1)C(=O)N(Cc1ccc(-c3c(C)noc3C)cc1)[C@H](CC(C)(C)C)CO2` [Compound 292], under setting [3], the Emax is greater than 60%.

`Cc1cccc(C)c1-c1cc2nc(n1)NS(=O)(=O)c1cccc(c1)C(=O)N(Cc1ccc(C3=CCCC3)cn1)[C@H](CC(C)(C)C)CO2` [Compound 810]: the EC50 (Table 11) was less than 1000 nM. For the same compound, the Emax under setting [2] was greater than 60%.

As to `Cc1cccc(C)c1-c1cc2nc(n1)NS(=O)(=O)c1cccc(c1)C(=O)N(Cc1cncc(N3CCCC3C(C)C)n1)[C@H](CC(C)(C)C)CO2` (stereo partly shown) [Compound 1384], where the note is “HBE assay”, the EC50 was less than 1000 nM.

For `Cc1cccc(C)c1-c1cc2nc(n1)NS(=O)(=O)c1cccc(c1)C(=O)N(Cc1cnc(N(C)CC(C)(C)C)cn1)[C@H](CC(C)(C)C)CO2` [Compound 899], the EC50 (Table 11) is less than 1000 nM. Under setting [2], the Emax was greater than 60%.

Regarding `COc1cc(Br)cnc1CN1C(=O)c2cccc(c2)S(=O)(=O)Nc2nc(cc(-c3c(C)cccc3C)n2)OC[C@H]1CC(C)(C)C` [Compound 244], the activation at 10 µM (Table 13, at 10 μM) is greater than 600%.

In the case of `Cc1cccc(C)c1-c1cc2nc(n1)NS(=O)(=O)c1cccc(c1)C(=O)N(Cc1cncc(NC3CCOC3)n1)[C@H](CC(C)(C)C)CO2` (stereo partly shown) [Compound 1353], where the note is “HBE assay”, the half-maximal effective concentration (EC50) was less than 1000 nM. Also, under setting [5], the Emax is greater than 60%.

For `Cc1cccc(C)c1-c1cc2nc(n1)NS(=O)(=O)c1cccc(c1)C(=O)N(Cc1cccc(N(C)C3CC4(CCC4)C3)n1)[C@H](CC(C)(C)C)CO2` [Compound 439], for the setting “Table 12”, the concentration giving a half-maximal response (EC50) was less than 1000 nM. For the same compound, under setting [4], the Emax is greater than 60%.

`Cc1cccc(C)c1-c1cc2nc(n1)NS(=O)(=O)c1cccc(c1)C(=O)N(Cc1nc(OCC(C)C)ccc1F)[C@H](CC(C)(C)C)CO2` [Compound 1376]: the EC50 (HBE assay) was less than 1000 nM. The Emax under setting [5] was greater than 60%.

Take `Cc1cccc(C)c1-c1cc2nc(n1)NS(=O)(=O)c1cccc(c1)C(=O)N(Cc1ccc(N(C)CC(C)(C)C)cn1)[C@H](CC(C)(C)C)CO2` [Compound 497]: the 50% effective concentration (EC50) (Table 10) fell in the range of 1000 to 3000 nM. For the same compound, under setting [3], the Emax is greater than 60%.

For the compound `Cc1cccc(C)c1-c1cc2nc(n1)NS(=O)(=O)c1cccc(c1)C(=O)N(Cc1cnc(C3CCCC3)cn1)[C@H](CC(C)(C)C)CO2` [Compound 890], the EC50 (Table 11) lay in the range of 3000 to 30000 nM. Moreover, the Emax under setting [2] is greater than 60%.

Take `COCCOc1cnc(CN2C(=O)c3cccc(c3)S(=O)(=O)Nc3nc(cc(-c4c(C)cccc4C)n3)OC[C@H]2CC(C)(C)C)nc1` [Compound 1380]: for the setting “HBE assay”, the EC50 was less than 1000 nM. In addition, the Emax under setting [5] is greater than 60%.

In the case of `Cc1cccc(C)c1-c1cc2nc(n1)NS(=O)(=O)c1cccc(c1)C(=O)N(Cc1ncc(O[C@H](C)C(C)C)cn1)[C@H](CC(C)(C)C)CO2` [Compound 1377], where the note is “HBE assay”, the EC50 is less than 1000 nM. For the same compound, the Emax under setting [5] was greater than 60%.

For `Cc1cc(N2CCC(C)(C)C2)cnc1CN1C(=O)c2cccc(c2)S(=O)(=O)Nc2nc(cc(-c3c(C)cccc3C)n2)OC[C@H]1CC(C)(C)C` [Compound 1135], the EC50 (Table 13) is less than 1000 nM. Besides, the Emax under setting [1] is greater than 60%.

For the compound `Cc1cccc(C)c1-c1cc2nc(n1)NS(=O)(=O)c1cccc(c1)C(=O)N(Cc1ncc(N3CCOC4(CC4)C3)cn1)[C@H](CC(C)(C)C)CO2` [Compound 1148], the EC50 (Table 13) was less than 1000 nM. The Emax under setting [1] is greater than 60%.
